Test results from PMC2869248 (Psychopharmacology, 2010).

Legend:
[1] = target: T1, cloned human KOR (hKOR), kappa-opioid receptor (Homo sapiens, UniProt P41145); test: biochemical
[2] = target: T1, cloned human KOR (hKOR), kappa-opioid receptor

T1 sequence (P41145 whole entry): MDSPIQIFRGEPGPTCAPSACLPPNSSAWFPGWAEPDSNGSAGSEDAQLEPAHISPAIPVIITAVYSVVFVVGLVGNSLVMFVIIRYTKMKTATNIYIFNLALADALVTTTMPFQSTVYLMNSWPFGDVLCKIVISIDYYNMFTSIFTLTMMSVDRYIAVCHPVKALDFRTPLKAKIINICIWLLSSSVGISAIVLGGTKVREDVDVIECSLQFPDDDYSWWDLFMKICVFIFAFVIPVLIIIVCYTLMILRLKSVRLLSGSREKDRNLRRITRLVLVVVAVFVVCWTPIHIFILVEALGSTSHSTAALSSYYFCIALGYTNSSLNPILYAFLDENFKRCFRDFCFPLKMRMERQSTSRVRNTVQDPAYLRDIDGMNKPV

CNC1(c2ccccc2Cl)CCCCC1=O (centres unmarked) [ketamine]
EC50 [1]: 29 µM | Ki [2]: 25 µM
